From patent US20220296595A1, “CDK INHIBITORS” (QILU REGOR THERAPEUTICS INC., priority 2019, published 2022)
Like-named read-outs stand apart in the source and are kept apart here.

Tests used:
CDK6/CyclinD3 = target: T1, CDK6/CyclinD3 (Homo sapiens, UniProt Q00534); assay: Assay for inhibition of CDK6/CyclinD3 (Caliper microfluidic kinase assay); format: biochemical
T1 construct: purchased Carna 04-107
Protocol: The CDK6 enzyme assay for IC50 determination was performed as follows. Microfluidic kinase detection technology (Caliper) was used to monitor the phosphorylation of peptide substrate by CDK6/CyclinD3. The total reaction volume is 15 μL containing buffer A (100 mM HEPES (pH 7.5), 0.1% BSA, 0.01% Triton X-100, 1 mM DTT, 10 mM MgCl2, 10 μM Sodium Orthovanadate, 10 μM Beta-Glycerophosphate), 300 μM ATP, 2 nM CDK6/CyclinD3 (Carna, 04-107), 1 μM FL-34 (5-FAM-[…]), and the test compound at appropriate dilutions in DMSO. All components were added to the 384-well plate (Corning, 4514), and incubated at Room Temperature for 3 hours. The reaction was terminated by addition of 15 μL Stop Buffer (180 mM HEPES (pH 7.5), 20 mM EDTA, Coating-3 reagent (PerkinElmer, 760050)). The plate was then loaded on Caliper EZ Reader (EZ Reader II, PerkinElmer, HD-4HYSG2772), and the reaction mixtures including substrate and product were sipped into the microfluidic chip for separation and detection. The IC50 values of the test compound were determined by fitting the inhibition curves by 4 parameter sigmoidal dose-response model using the Xlfit5/GraphPad Prism 5 software.

CDK4/CyclinD1 = target: T2, CDK4/CyclinD1 (Homo sapiens, UniProt P11802); assay: Assay for inhibition of CDK4/CyclinD1 (Caliper microfluidic kinase assay); format: biochemical
T2 construct: purchased Thermofisher PR8064A
Method in brief: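 IC50 was obtained by 4-parameter sigmoidal fitting after 1 nM CDK4/CyclinD1, 200 μM ATP and 1 μM FL-34 substrate reacted for 3 h at room temperature (pH 7.5 HEPES, 10 mM MgCl2). After EDTA quench, substrate and product were separated and detected on a Caliper microfluidic chip.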

CDK2/CyclinE1 = target: T3, CDK2/CyclinE1 (Homo sapiens, UniProt P24941); assay: Assay for inhibition of CDK2/CyclinE1 (Caliper microfluidic kinase assay); format: biochemical
T3 construct: purchased SignalChem C29-18G
Method in brief: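 IC50 came from 4-parameter fits of substrate-to-product conversion, separated on a Caliper chip after an EDTA stop. Reactions ran 3 hours at room temperature with 100 μM ATP, 5 μM fluorescent FL-18 peptide and 5 nM enzyme in 100 mM HEPES pH 7.5, 10 mM MgCl2.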

T47D breast cancer cells = assay: Anti-proliferation assay in T47D cell (Cyquant, day 6); format: cell-based, human; conditions: Homo sapiens, T47D, anti-proliferation, T47D cells; read-out: T47D IC50
Source text: T47D is a human breast cancer cell line commonly used in biomedical research involving the hormonal expression of cancer cells. T47D cells are distinct from other human breast cancer cells in that their progesterone receptors (PR) are not regulated by estradiol, a hormone that is abundant within the cells themselves. T47D cells have been employed in studies of the effects of progesterone on breast cancer and the corresponding transcriptional regulation caused by introduced drugs. The cells have been noted to be extremely resistant to estrogens and antiestrogens.
T47D breast cancer cells from American Type Culture Collection (ATCC, HTB-133) were plated at 3000 cells/well in 96-well plates, and were incubated in RPMI 1640 medium (Gibco, 31800105) with 10% Fetal Bovine Serum (FBS, Biowest, FB-1058) at 37° C., 5% CO2. After overnight incubation, baseline values were measured of the samples from one plate using Cyquant reagent (Invitrogen, C35011) following manufacturer's recommendations. Cells were incubated with the detection reagent for 1 hour at 37° C., and then the fluorescence was measured with excitation at 485 nm and emission at 535 nm using Spectra Max M5 (Molecular Devices, HD-4HYSG3196). Other plates were dosed with compounds at a ten-point dose concentration from 10 μM to 0.51 nM in a 3-fold dilution scheme. On day 6 after compound addition, Cyquant reagent was added and the fluorescence was measured using Spectra Max M5. The IC50 values of the test compound's anti-proliferation activity were determined from the baseline subtracted viability readout curve using Xlfit5/GraphPad Prism 5 software.

[1] = CDK2/CyclinE1, 100 μM ATP, read-out: CDK2 IC50
[2] = CDK2/CyclinE1, read-out: CDK2 IC50

T1 sequence (Q00534 whole entry): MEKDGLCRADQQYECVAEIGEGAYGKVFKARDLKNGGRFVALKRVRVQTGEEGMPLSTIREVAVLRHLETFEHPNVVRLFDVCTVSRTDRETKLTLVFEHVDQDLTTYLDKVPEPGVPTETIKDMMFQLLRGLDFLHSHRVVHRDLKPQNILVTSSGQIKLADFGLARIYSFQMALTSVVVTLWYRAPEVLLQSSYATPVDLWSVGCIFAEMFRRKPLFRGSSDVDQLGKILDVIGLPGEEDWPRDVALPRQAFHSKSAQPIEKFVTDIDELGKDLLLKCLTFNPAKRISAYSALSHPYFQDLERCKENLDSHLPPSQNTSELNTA
T1 sequence (P30281 whole entry partner): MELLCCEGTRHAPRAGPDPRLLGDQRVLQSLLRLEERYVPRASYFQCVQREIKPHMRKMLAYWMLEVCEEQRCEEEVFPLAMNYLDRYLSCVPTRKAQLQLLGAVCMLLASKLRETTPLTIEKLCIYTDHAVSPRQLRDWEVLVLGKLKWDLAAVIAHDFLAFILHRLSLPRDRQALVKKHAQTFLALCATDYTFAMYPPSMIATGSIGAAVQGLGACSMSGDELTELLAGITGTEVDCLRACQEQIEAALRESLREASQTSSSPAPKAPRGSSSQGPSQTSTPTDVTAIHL
T2 sequence (P11802 whole entry): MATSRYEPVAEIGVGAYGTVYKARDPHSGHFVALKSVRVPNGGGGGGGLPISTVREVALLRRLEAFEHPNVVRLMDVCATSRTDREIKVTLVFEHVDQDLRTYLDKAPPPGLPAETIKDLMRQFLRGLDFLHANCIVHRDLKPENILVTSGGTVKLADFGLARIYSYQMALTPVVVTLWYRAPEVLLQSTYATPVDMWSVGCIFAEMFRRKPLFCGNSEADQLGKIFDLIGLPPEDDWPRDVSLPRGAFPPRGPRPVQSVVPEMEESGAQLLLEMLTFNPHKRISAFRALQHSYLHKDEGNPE
T2 sequence (P24385 whole entry partner): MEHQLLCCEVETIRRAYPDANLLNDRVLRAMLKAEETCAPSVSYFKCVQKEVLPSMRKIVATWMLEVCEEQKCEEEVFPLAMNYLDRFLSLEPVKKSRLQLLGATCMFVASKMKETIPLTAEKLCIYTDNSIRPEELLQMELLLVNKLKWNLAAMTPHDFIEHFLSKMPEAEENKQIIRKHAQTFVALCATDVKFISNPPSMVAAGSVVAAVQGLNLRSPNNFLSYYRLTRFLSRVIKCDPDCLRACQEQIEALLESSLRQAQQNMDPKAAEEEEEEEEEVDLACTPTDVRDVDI

IC50 (CDK6/CyclinD3; CDK6/CyclinD3, 300 μM ATP) [nM] | IC50 (CDK4/CyclinD1; CDK4/CyclinD1, 200 μM ATP) [nM] | IC50 (CDK2/CyclinE1; [1]) [nM] | IC50 (T47D breast cancer cells) [nM] | IC50 (CDK6/CyclinD3; CDK6/CyclinD3) [nM] | IC50 (CDK4/CyclinD1; CDK4/CyclinD1) [nM] | IC50 (CDK2/CyclinE1; [2]) [nM] | SMILES | IC50 (CDK2/CyclinE1) [nM]
– | – | – | 100 to 500 | 10 to 100 | < 10 | – | CCN1CCN(Cc2ccc(Nc3ncc(F)c(-c4cc5c(ncn5C(C)C)c(OC)n4)n3)nc2)CC1 [compound 87] | –
10 to 100 | < 10 | < 10 | – | – | – | – | CC(C)c1cnn2ccc(-c3ccnc(Nc4ccc(N5CCC(C)(N)CC5=O)cc4F)n3)cc12 (centres unmarked) [compound 213] | –
– | – | – | – | 100 to 1000 | 10 to 100 | 100 to 1000 | COc1nc(-c2nc(NC3CCN(S(C)(=O)=O)CC3)ncc2F)cc2c1nc(C)n2C(C)C [compound 102] | –
< 10 | < 10 | > 1000 | – | – | – | – | COc1nc(-c2nc(Nc3ccc(N4CCN(C5CCNCC5)CC4=O)cn3)ncc2F)cc2c1nc(C)n2C(C)C [compound 139] | –
10 to 100 | < 10 | > 1000 | 100 to 500 | – | – | – | COc1nc(-c2nc(Nc3ccc(N4CCN(CC(F)(F)F)CC4=O)cn3)ncc2F)cc2c1nc(C)n2C(C)C [compound 124] | –
10 to 100 | 10 to 100 | < 10 | – | – | – | – | Cc1nc2c(F)nc(-c3ccnc(Nc4ccc(S(N)(=O)=O)cc4)n3)cc2n1C(C)C [compound 288] | –

Further lines, the molecule ahead of its results:

SMILES | IC50 (CDK6/CyclinD3; CDK6/CyclinD3, 300 μM ATP) [nM] | IC50 (CDK4/CyclinD1; CDK4/CyclinD1, 200 μM ATP) [nM] | IC50 (CDK2/CyclinE1; [1]) [nM] | IC50 (T47D breast cancer cells) [nM] | IC50 (CDK6/CyclinD3; CDK6/CyclinD3) [nM] | IC50 (CDK4/CyclinD1; CDK4/CyclinD1) [nM] | IC50 (CDK2/CyclinE1; [2]) [nM] | IC50 (CDK2/CyclinE1) [nM]
CC(C)c1cnn2ccc(-c3nc(Nc4ccc(N5CCOCC5=O)cn4)ncc3F)cc12 [compound 2] | 10 to 100 | < 10 | < 10 | < 100 | – | – | – | –
O=C1COCCN1c1ccc(Nc2ncc(F)c(-c3ccn4ncc(C5CCOCC5)c4c3)n2)nc1 [compound 18] | 100 to 1000 | 10 to 100 | – | 500 to 1000 | – | – | – | –
CC(C)c1cnn2ccc(-c3nc(Nc4ccc(N5CCOCC5=O)c(C(F)(F)F)c4)ncc3F)cc12 [compound 23] | 10 to 100 | 10 to 100 | – | 500 to 1000 | – | – | – | –
CCN1CCN(Cc2ccc(Nc3ncc(F)c(-c4cc5c(C(C)C)n(C)nc5cn4)n3)nc2)CC1 [Synthetic Example 58] | > 1000 | 100 to 1000 | – | > 1000 | – | – | – | –
CC(C)c1cnn2ccc(-c3nc(Nc4ccc(N5CCOCC5)cn4)ncc3F)cc12 [compound 13] | 10 to 100 | 10 to 100 | – | 100 to 500 | – | – | – | –
CC(C)c1cnn2ccc(-c3nc(Nc4ccc(N5CCC(N(C)C)CC5)cn4)ncc3F)cc12 [compound 9] | 10 to 100 | < 10 | 100 to 1000 | 100 to 500 | – | – | – | –
COc1nc(-c2nc(Nc3ccc(N4CCOCC4=O)cn3)ncc2C)cc2c1nc(C)n2C(C)C [compound 75] | – | – | – | < 100 | 10 to 100 | < 10 | 100 to 1000 | –
COc1nc(-c2nc(Nc3ccc(N4CCN(C5CNC5)CC4=O)cn3)ncc2F)cc2c1nc(C)n2C(C)C [Synthetic Example 138] | 10 to 100 | < 10 | 100 to 1000 | – | – | – | – | –
Cc1nc(Nc2ncc(F)c(-c3ccn4ncc(C(C)C)c4c3)n2)ccc1C(=O)N1CCC(NC2CC2)CC1 [compound 11] | 10 to 100 | 10 to 100 | 100 to 1000 | 100 to 500 | – | – | – | –
CNC1CCN(C(=O)c2ccc(Nc3nccc(-c4ccn5ncc(C(C)C)c5c4)n3)cc2)C1 (centres unmarked) [compound 189] | < 10 | < 10 | – | – | – | – | – | < 10
